Measured values reported in US20210284621A1 (priority 2018, published 2021).
Where two headings read alike, the source gives them in different places.

Tests used:
CB1 receptor [1] = target: T1, CB1 receptor (Homo sapiens, UniProt P21554); test: cAMP Assay #2: Hit Hunter cAMP assay, Gi-coupled agonist activity, CB1; type: cell-based; parameters: host or cells: PathHunter cell lines
CB2 receptor [2] = target: T2, CB2 receptor (Homo sapiens, UniProt P34972); test: cAMP Assay #2: Hit Hunter cAMP assay, Gi-coupled agonist activity, CB2; type: cell-based; parameters: host or cells: cAMP Hunter cell lines; conditions: for CB2 fold selectivity: CB1 EC50 / CB2 EC50
T2 sequence (P34972 whole entry): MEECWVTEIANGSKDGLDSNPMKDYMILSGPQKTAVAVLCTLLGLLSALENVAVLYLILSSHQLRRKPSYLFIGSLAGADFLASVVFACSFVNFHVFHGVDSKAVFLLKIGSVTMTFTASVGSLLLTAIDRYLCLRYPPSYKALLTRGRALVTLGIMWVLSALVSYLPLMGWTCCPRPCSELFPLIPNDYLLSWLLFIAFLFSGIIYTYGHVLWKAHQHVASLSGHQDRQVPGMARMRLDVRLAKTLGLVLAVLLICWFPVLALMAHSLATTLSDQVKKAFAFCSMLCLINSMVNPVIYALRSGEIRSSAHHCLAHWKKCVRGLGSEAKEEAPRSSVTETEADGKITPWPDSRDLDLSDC

CB1 receptor [3] = target: T1, CB1 receptor; test: cell-based; parameters: host or cells: PathHunter cell lines
CB2 receptor [4] = target: T2, CB2 receptor; test: cell-based; parameters: host or cells: cAMP Hunter cell lines
Method in brief: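 PathHunter β-Arrestin enzyme fragment complementation cells, EA-tagged β-Arrestin and PK-tagged receptor, exposed to compound for 90 to 180 minutes at 37° C. or room temperature, 1% vehicle. Chemiluminescence read 1 h after detection reagent; agonist % activity relative to vehicle and MAX control ligand.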

CB1 receptor [5] = target: T1, CB1 receptor; test: CB1 competitive radioligand binding assay ([3H] SR141716A); parameters: expressed in transfected cells; host or cells: Chem-1 cells; conditions: for inhibition at 0.5 µM: 0.5 μM compound, 2.0 nM [3H] SR141716A, 90 min 37° C.
Method in brief: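 Chem-1 cells expressing human recombinant CB1 incubated 90 min at 37° C with 2.0 nM [3H]SR141716A and compound at 0.5 μM (1% DMSO) in HEPES pH 7.4 buffer with MgCl2, CaCl2, 0.2% BSA. Read-out is % inhibition of radioligand binding.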

[6] = Hit Hunter cAMP, 20 μM forskolin, control ligand CP55,940, read-out: CB1, EC50
[7] = Hit Hunter cAMP, 25 μM forskolin, control ligand CP55,940, read-out: CB2, EC50
[8] = PathHunter agonist mode, read-out: CB1 Activity (β-Arrestin)
[9] = PathHunter agonist mode, read-out: CB2 Activity (β-Arrestin)
[10] = Table 2, read-out: CB1 Binding Ki

T1 sequence (P21554 whole entry): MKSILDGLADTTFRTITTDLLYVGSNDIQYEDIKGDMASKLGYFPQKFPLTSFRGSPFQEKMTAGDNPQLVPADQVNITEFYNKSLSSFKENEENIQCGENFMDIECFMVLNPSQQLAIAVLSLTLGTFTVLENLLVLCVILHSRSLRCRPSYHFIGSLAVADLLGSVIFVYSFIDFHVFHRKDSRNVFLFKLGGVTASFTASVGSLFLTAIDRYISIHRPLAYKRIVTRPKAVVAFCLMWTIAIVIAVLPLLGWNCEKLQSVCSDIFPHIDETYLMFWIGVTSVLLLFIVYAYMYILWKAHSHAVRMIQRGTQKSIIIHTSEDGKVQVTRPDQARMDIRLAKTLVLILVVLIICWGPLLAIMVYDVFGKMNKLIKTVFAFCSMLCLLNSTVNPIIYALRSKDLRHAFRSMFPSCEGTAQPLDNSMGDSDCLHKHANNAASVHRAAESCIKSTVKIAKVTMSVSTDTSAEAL

**Q.** For `CCCCCCC(C)(C)c1cc(O)c2c(c1)OC(C)(C)[C@@H]1CC=C(C(=O)O)C[C@@H]21` [AJA, (6aR,10aR)-1-hydroxy-6,6-dimethyl-3-(2-methyl-2-octanyl)-6a,7,10,10a-tetrahydro-6H-benzo[c]chromene-9-carboxylic acid, reference compound], which EC50 (CB1 receptor [1]) is on record?
**A.** 77.1 nM

**Q.** And the EC50 (CB2 receptor [2])?
**A.** 7 nM

**Q.** And the CB2 fold selectivity (CB2 receptor [2]; Hit Hunter cAMP)?
**A.** 11.0

**Q.** What about the EC50 (CB1 receptor [3]) of the same compound?
**A.** 1240 nM

**Q.** What about the EC50 (CB2 receptor [4]) of the same compound?
**A.** 11 nM

**Q.** What about the Ki (CB1 receptor [5]) of the same compound?
**A.** > 3000 nM

**Q.** What about the inhibition at 0.5 µM (CB1 receptor [5]) of the same compound?
**A.** -1%

**Q.** For `CCCCCCC(C)(C)c1cc(O)c2c(c1)OC(C)(C)[C@@H]1CC=C(C(=O)NC(C)(C)CCO)C[C@@H]21` [Compound 15, (6aR,10aR)-1-Hydroxy-N-(4-hydroxy-2-methylbutan-2-yl)-6,6-dimethyl-3-(2-methyloctan-2-yl)-6a,7,10,10a-tetrahydro-6H-benzo[c]chromene-9-carboxamide], which EC50 (CB1 receptor [1]; [6]) is on record?
**A.** 448 nM

**Q.** What about the EC50 (CB2 receptor [2]; [7]) of the same compound?
**A.** 2.7 nM

**Q.** What about the CB2 fold selectivity (CB2 receptor [2]; Hit Hunter cAMP) of the same compound?
**A.** 164.1

**Q.** And the EC50 (CB1 receptor [3]; [8])?
**A.** > 3000 nM

**Q.** What about the EC50 (CB2 receptor [4]; [9]) of the same compound?
**A.** > 3000 nM

**Q.** And the inhibition at 0.5 µM (CB1 receptor [5])?
**A.** 16%

**Q.** What about the Ki (CB1 receptor [5]; [10]) of the same compound?
**A.** 660 nM

**Q.** Which results are given for `CCCCCCC(C)(C)c1cc(O)c2c(c1)OC(C)(C)[C@@H]1CC=C(C(=O)NC(CO)CO)C[C@@H]21` [Compound 25, (6aR,10aR)-N-(1,3-Dihydroxypropan-2-yl)-1-hydroxy-6,6-dimethyl-3-(2-methyloctan-2-yl)-6a,7,10,10a-tetrahydro-6H-benzo[c]chromene-9-carboxamide]?
**A.** EC50 (CB1 receptor [1]; [6]): 360 nM; EC50 (CB2 receptor [2]; [7]): 9 nM; CB2 fold selectivity (CB2 receptor [2]; Hit Hunter cAMP): 40.0; EC50 (CB1 receptor [3]; [8]): > 3000 nM; EC50 (CB2 receptor [4]; [9]): 10 nM; inhibition at 0.5 µM (CB1 receptor [5]): 29%; Ki (CB1 receptor [5]; [10]): 316 nM

**Q.** Which EC50 (CB1 receptor [1]) does the source give for `CCCCCCC(C)(C)c1cc(O)c2c(c1)OC(C)(C)[C@@H]1CC=C(C(=O)OC(C)C)C[C@@H]21` [Compound 29, Isopropyl (6aR,10aR)-1-hydroxy-6,6-dimethyl-3-(2-methyloctan-2-yl)-6a,7,10,10a-tetrahydro-6H-benzo[c]chromene-9-carboxylate] here?
**A.** 9.6 nM

**Q.** What about the EC50 (CB2 receptor [2]) of the same compound?
**A.** 1 nM

**Q.** What about the CB2 fold selectivity (CB2 receptor [2]; Hit Hunter cAMP) of the same compound?
**A.** 9.6

**Q.** And the EC50 (CB1 receptor [3]; [8])?
**A.** 47 nM

**Q.** And the EC50 (CB2 receptor [4]; [9])?
**A.** 3 nM

**Q.** And the inhibition at 0.5 µM (CB1 receptor [5])?
**A.** 65%

**Q.** `CCCCCCC(C)(C)c1cc(O)c2c(c1)OC(C)(C)[C@@H]1CC=C(C(=O)NC[C@@H](O)CO)C[C@@H]21` [Compound 55, (6aR,10aR)-N—((R)-2,3-Dihydroxypropyl)-1-hydroxy-6,6-dimethyl-3-(2-methyloctan-2-yl)-6a,7,10,10a-tetrahydro-6H-benzo[c]chromene-9-carboxamide] was tested. Which EC50 (CB1 receptor [1]; [6]) did it give?
**A.** 175 nM

**Q.** And the EC50 (CB2 receptor [2]; [7])?
**A.** 5.7 nM

**Q.** And the CB2 fold selectivity (CB2 receptor [2]; Hit Hunter cAMP)?
**A.** 30.5

**Q.** And the EC50 (CB1 receptor [3]; [8])?
**A.** > 3000 nM

**Q.** What about the EC50 (CB2 receptor [4]; [9]) of the same compound?
**A.** 6.9 nM

**Q.** What about the Ki (CB1 receptor [5]; [10]) of the same compound?
**A.** 619 nM

**Q.** `CCCCCCC(C)(C)c1cc(O)c2c(c1)OC(C)(C)[C@@H]1CC=C(C(=O)NC[C@H](O)CO)C[C@@H]21` [Compound 56, (6aR,10aR)-N—((S)-2,3-Dihydroxypropyl)-1-hydroxy-6,6-dimethyl-3-(2-methyloctan-2-yl)-6a,7,10,10a-tetrahydro-6H-benzo[c]chromene-9-carboxamide] was tested. Which EC50 (CB1 receptor [1]; [6]) did it give?
**A.** 250 nM

**Q.** And the EC50 (CB2 receptor [2]; [7])?
**A.** 8.4 nM

**Q.** And the CB2 fold selectivity (CB2 receptor [2]; Hit Hunter cAMP)?
**A.** 30.0

**Q.** What about the EC50 (CB1 receptor [3]; [8]) of the same compound?
**A.** > 3000 nM

**Q.** What about the EC50 (CB2 receptor [4]; [9]) of the same compound?
**A.** 6.9 nM

**Q.** What about the Ki (CB1 receptor [5]; [10]) of the same compound?
**A.** 708 nM
